US20130289070A1, “Use of Levocabastine for Modulating Generation of Pro-Inflammatory Cytokines” (Bausch & Lomb Incorporated, priority 2007, published 2013)

Assays:
[1] = test system: EoL-1 (human eosinophilic leukaemia cell line) cells; assay: TNF-α-induced cytokine release, non-differentiated EoL-1 cells (NO PMA) (Luminex); format: cell-based; details: 24 h, Bio1211 vs TNF-α
Experimental: (§1) EoL-1 (human eosinophilic leukaemia cell line) cells (Saito et al., 1985; Mayumi, 1992) were maintained in RPMI-1640 medium with L-glutamine supplemented with 10% (v/v) FBS at 37° C. in a humidified atmosphere with 5% CO2. Where indicated, 24 h before the experiment 25 ng/mL PMA ((phorbol 12-myristate 13-acetate, purchased from Sigma Aldrich) was added to the medium to induce eosinophil granulation and differentiation (Ohtsu et al., 1993; Zimmermann et al., 2000).
(§2) Half-million cells were aliquoted per point in a 24 well plate; each experiment was performed in triplicate and carried out in parallel with eosinophils differentiated and non differentiated with PMA (25 ng/mL, 24 h). Cells were suspended in low serum medium (RPMI-1640, 0.1% (v/v) FBS). TNF-α was used to induce cytokine secretion as previously described by Steube et al. (2000), and the net release was obtained by comparison to the basal (non-TNF-α treated). In the first experiment we evaluated the concentration and time relation between TNF-α stimulation and cytokine release. Therefore, 5, 10, and 25 ng/mL of TNF-α was administered to the cells at 0, ½, 1, 2, 3, 6, 12 and 24 h (data not shown). An aliquot of 150 μL of supernate was collected for cytokines' analysis. […] Differentiated and non-differentiated EoL-1 cells were exposed from 0.1 to 2.3 mM levocabastine ([…]Levocabastine 0.05% solution eye drops containing cyclodextrins, without benzalkonium chloride), and aliquots of the supernates were collected after 12 and 24 h. The content of cytokines at time zero was estimated by treating the cells with 400 nM calcimycin (A-23187), which is a cytolytic agent that frees all the mediators from the cytoplasmic compartment. In addition, for each experiment we tested the effect of the vehicle, which was added to the wells in a concentration equal to the maximum amount used for drug dilution.
(§3) Samples (supernates 12 and 24 h) in triplicate were analyzed using Luminex 200™ (Luminex, Austin, Tex.) and Beadview software v1.0 (Upstate Cell Signaling Solutions, Temecula, Calif.).
(§4) All data are presented as mean±SEM for the indicated number of experiments. Statistical significance was determined by Newman-Keuls test after ANOVA using GraphPad Prism (version 3.0; GraphPad Software Inc., San Diego, Calif., USA). P-values<0.05 were considered to be significant.

[2] = test system: EoL-1 (human eosinophilic leukaemia cell line) cells; assay: TNF-α-induced cytokine release, EoL-1 cells differentiated with PMA (Luminex); format: cell-based; details: 24 h, Bio1211 vs TNF-α
Experimental: as §1, §2, §3, §4

## 4-((2-methylphenyl)aminocarbonyl)-aminophenyl)acetyl-Leu-Asp-Val-Pro-OH [Bio1211]
[1]
  Fractalkine (NO PMA), p of decrement: P < 0.05
  G-CSF (NO PMA), p of decrement: ns
  GM-CSF (NO PMA), p of decrement: P < 0.05
  IL-1ra (NO PMA), p of decrement: P < 0.001
  IL-1α (NO PMA), p of decrement: ns
  IL-1β (NO PMA), p of decrement: ns
  IL-5 (NO PMA), p of decrement: ns
  IL-6 (NO PMA), p of decrement: P < 0.05
  IL-7 (NO PMA), p of decrement: ns
  IL-8 (NO PMA), p of decrement: P < 0.001
  IL-10 (NO PMA), p of decrement: ns
  IL-12p40 (NO PMA), p of decrement: P < 0.05
  IP-10 (NO PMA), p of decrement: P < 0.001
  MCP-1 (NO PMA), p of decrement: ns
  MIP-1α (NO PMA), p of decrement: ns
  MIP-1β (NO PMA), p of decrement: ns
  RANTES (NO PMA), p of decrement: ns
  TGF-α (NO PMA), p of decrement: ns
  VEGF (NO PMA), p of decrement: ns
[2]
  Fractalkine (PMA), p of decrement: ns
  G-CSF (PMA), p of decrement: ns
  GM-CSF (PMA), p of decrement: ns
  IL-1ra (PMA), p of decrement: ns
  IL-1α (PMA), p of decrement: P < 0.05
  IL-1β (PMA), p of decrement: ns
  IL-5 (PMA), p of decrement: ns
  IL-6 (PMA), p of decrement: ns
  IL-7 (PMA), p of decrement: ns
  IL-8 (PMA), p of decrement: ns
  IL-10 (PMA), p of decrement: ns
  IL-12p40 (PMA), p of decrement: P < 0.05
  IP-10 (PMA), p of decrement: P < 0.001
  MCP-1 (PMA), p of decrement: P < 0.001
  MIP-1α (PMA), p of decrement: ns
  MIP-1β (PMA), p of decrement: ns
  RANTES (PMA), p of decrement: ns
  TGF-α (PMA), p of decrement: ns
  VEGF (PMA), p of decrement: P < 0.05
